Test results taken from PMC5898002, “Overexpression of a type III PKS gene affording novel violapyrones with enhanced anti-influenza A virus activity” (Microbial Cell Factories, 2018).

How the values were obtained:
[1] = tested on: influenza virus A/PR8/34 (H1N1); experiment: microbe, parasite or virus in culture; type: cell-based; details: MDCK cells, MOI = 1.0 (table footnote), 48 h post-infection, mean of n = 4, read-out: IC50: concentration required to inhibit influenza virus A/PR8/34 (H1N1) yield at 48 h post-infection by 50%
[2] = cytotoxicity in MDCK cell by MTT assay; details: dog, MDCK cells, CC50: concentration required to reduce MDCK cell viability by 50%, mean of n = 3
MDCK cells = details: dog, 48 h
in vitro = details: dog, CC50: concentration required to reduce MDCK cell viability by 50%

Structure (SMILES)	IC50 [1] [µM]	CC50 at 48 h [2] [µM]	CC50 (MDCK cells) [µM]	CC50 at 48 h (in vitro) [µM]
Cc1c(O)cc(CCCCCC(C)C)oc1=O [Compound 14, VLP H]	28.8	1450	–	–
CCC(C)CCCCc1cc(O)c(C)c(=O)o1 (stereo not shown) [Compound 13, VLP C]	107	1620	–	–
CCc1c(O)cc(CCCCC(C)C)oc1=O [Compound 12, VLP P]	26.9	1570	–	–
NC(=O)c1ncn([C@@H]2O[C@H](CO)[C@@H](O)[C@H]2O)n1 [Ribavirin, reference compound]	113	1520	–	–
CCCCCCCc1cc(O)c(C)c(=O)o1 [Compound 11, VLP I]	113	2200	–	–
Cc1c(O)cc(CCCCC(C)C)oc1=O [Compound 10, Violapyrone B]	> 200	–	> 1500	> 1400
